Source: US4013507A, “Ionene polymers for selectively inhibiting the vitro growth of malignant cells” (California Institute of Technology, priority 1975, dated 1977)

Key:
[1] = tested on: L1210 leukemia system; conditions: when quaternized; J. Med. Chem. 10, 706, 1967; cited from earlier work
[2] = in vivo; conditions: mouse
From the text: Due to the high positive charge density and high water solubility, ionenes strongly interact with a wide variety of cell materials.

[3] = tested on: sulfhydryl groups on the cell periphery; test: Effect of N-ethylmaleimide pretreatment on cell adhesion to ionene-coated surface; assay type: cell-based; conditions: pretreatment of the cells
From the text: Chemical interaction with DNA is also a possibility. In fact, ionenes form strong waterinsoluble complexes with DNA.

[4] = tested on: DNA; conditions: polyamines, general knowledge; cited from earlier work
[5] = Repeated-dose tolerance of PC-6 and cyclophosphamide in mice; assay type: in vivo; conditions: similar doses to nine doses of 100 mg/kg per day
[6] = in vivo
From the text: Protamine sulfate and toluidine blue, neither of which are free of toxic effects, are clinically used as antiheparin agents.

[7] = Protective action of heparin against toxicity of 6,3-ionene bromide, mice; assay type: in vivo
From the text: (§1) This is not surprising considering the formation of relatively stable complexes between ionenes and heparin.

[8] = Protective action of heparin against toxicity of 6,3-ionene bromide, dogs; assay type: in vivo
From the text: as §1

Compound: O=C(Nc1ccc(-c2ccncc2)cc1)c1ccc(C(=O)Nc2ccc(-c3ccncc3)cc2)cc1
- Effectiveness against L1210 leukemia system [1]: very effective against the L1210 leukemia system when quaternized

Compound: C[N+](C)(CBr)CCCCCC[N+](C)(C)CBr
- LD50 ([2]; ip): 10 to 50 mg/kg
- LD50 ([2]; po): 300 to 500 mg/kg

Compound: C[N+](C)(CCBr)CCCCCC[N+](C)(C)CCBr
- LD50 ([2]; ip): 10 to 50 mg/kg
- LD50 ([2]; po): 100 to 200 mg/kg

Compound: C[N+](C)(CBr)CCCC[N+](C)(C)CBr
- LD50 ([2]; ip): > 1000 mg/kg
- LD50 ([2]; po): > 1000 mg/kg

Compound: C[N+]1(C)CC[N+](C)(C)CC1
- LD50 ([2]; ip): > 1000 mg/kg
- LD50 ([2]; po): > 1000 mg/kg

Compound: CCN1C(=O)C=CC1=O [N-ethylmaleimide (NEM), N-ethylmaleimide]
- Effect on cell adhesion on an ionene-coated surface [3]: inhibited cell adhesion on an ionene-coated surface

Compound: NCCCCNCCCN [Spermidine, NH2 (CH2)3 --NH--(CH2)4 NH2]
- Binding to DNA [4]: bind to DNA

Compound: NCCCNCCCCNCCCN [Spermine, NH2 (CH2)3 NH(CH2)4 NH(CH2)3 NH2]
- Binding to DNA [4]: bind to DNA

Compound: O=P1(N(CCCl)CCCl)NCCCO1 (stereo not drawn) [cyclophosphamide]
- Lethality of similar doses [5]: lethal within a much shorter time

Compound: Cc1cc2nc3ccc(N(C)C)cc3[s+]c2cc1N [toluidine blue]
- LD50 ([6]; in vivo, iv): 45 mg/kg

Compound: Heparin
- Survival of mice pretreated with heparin ([7]; 6,3-ionene bromide doses relative to LD50, heparin pretreatment): survive doses three times the LD50 values with only mild toxicity symptoms
- Protective action in neutralizing the toxicity of 6,3-ionene bromide ([7]; mice): offers a protective action in neutralizing the toxicity of 6,3-ionene bromide
- Protective action in neutralizing the toxicity of 6,3-ionene bromide [8]: offers a protective action in neutralizing the toxicity of 6,3-ionene bromide

Compound: Protamine sulfate
- i.v. LD50 ([6]; i.v., comparison agents, species not given): 44 mg/kg
